Usually IC50 stands for the concentration needed to halve the response being measured.

This test deals with MCH receptor (SLC-1) (UniProt Q99705). Nature of the test: MCH receptor antagonistic activity using GTPγS binding assay. In kind it is biochemical, human. The conditions noted are these: [35S]-GTPγS binding, membrane fractions of SLC-1 expression CHO cells, 3×10^−10 M MCH, 25° C. 1 hr; read-out: Inhibitory Activity (IC50 value: nM). Here is the method: Using human SLC-1 expression CHO cell clone 57 and rat SLC-1 expression CHO cell clone 44 described in WO01/82925, membrane fractions of SLC-1 expression CHO cells were prepared by the following method. In phosphate buffered saline (pH 7.4) supplemented with 5 mM EDTA (ethylenediaminetetraacetic acid) were suspended human and rat SLC-1 expression CHO cells (1×10^8) and centrifuged. Homogenate buffer (10 ml, 10 mM […], 5 mM EDTA, pH 7.5) was added to the pellets of the cells and, using Polytron Homogenizer, the mixture was homogenated. The supernatant obtained after centrifugation at 400×g for 15 min was further centrifuged at 100,000×g for 1 hr to give precipitate of the membrane fraction. The precipitate was suspended in 2 ml of an assay buffer [50 mM Tris-HCl (pH 7.5), 1 mM EDTA, 0.1% BSA (bovine serum albumin), 10 mM MgCl2, 100 mM NaCl, 1 μM GDP (guanosine 5′-diphosphate), 0.25 mM PMSF (phenylmethylsulfonyl fluoride), […]] and centrifuged at 100,000×g for 1 hr. The membrane fraction recovered as precipitate was suspended again in 20 ml of an assay buffer, and after dispensing, preserved at −80° C. and used upon thawing each time when in use.
The MCH receptor antagonistic activity of the test compound was determined as follows. The membrane fractions of SLC-1 expression CHO cells (171 μl) diluted with an assay buffer was dispensed to a polypropylene 96 well plate and 3×10^−10 M MCH (2 μl) diluted with DMSO solution, test compound solution (2 μl) diluted to various concentrations and [^35S]-Guanosine 5′-(γ-thio)triphosphate (25 μl, Daiichi Pure Chemicals Co., Ltd.) were respectively added (cellular membrane final concentration: 20 μg/ml, [^35S]-Guanosine 5′-(γ-thio)triphosphate final concentration: 0.33 nM). The reaction mixture was reacted at 25° C. for 1 hr with stirring, suction filtered with a glass filter (GF-C) and washed 3 times with a wash solution (300 μl, 50 mM Tris-HCl buffer, pH 7.5). Liquid scintillator ([…]) was added to the glass filter and the residual radioactivity was determined by a liquid scintillation counter.
Binding inhibition (%)=(radioactivity upon addition of test compound and MCH−radioactivity upon addition of DMSO solution)/(radioactivity upon addition of MCH−radioactivity upon addition of DMSO solution)×100
From the binding inhibition (%), IC50 of the test compound was calculated.
Regarding `Cc1c(NC(=O)c2ccc(OCC3CC3)cc2F)ccc2cc(CNC3CC[S+]([O-])CC3)cnc12` (stereo not drawn) [Ex. 35, 4-(cyclopropylmethoxy)-2-fluoro-N-(8-methyl-3-{[(trans-1-oxidotetrahydro-2H-thiopyran-4-yl)amino]methyl}quinolin-7-yl)benzamide], the IC50 is 5.6 nM.

As to `Cc1c(NC(=O)c2ccc(OCC3CC3)cc2F)ccc2cc(CNC3CC[S+]([O-])CC3)cnc12` (stereo not drawn) [Ex. 36, 4-(cyclopropylmethoxy)-2-fluoro-N-(8-methyl-3-{[(cis-1-oxidotetrahydro-2H-thiopyran-4-yl)amino]methyl}quinolin-7-yl)benzamide], the IC50 turned out to be 3.4 nM.

As to `Cc1c(NC(=O)c2ccc(C#CC3CC3)cc2)ccc2cc(CNC3CCS(=O)(=O)CC3)cnc12` [Ex. 41, 4-(cyclopropylethynyl)-N-(3-{[(1,1-dioxidotetrahydro-2H-thiopyran-4-yl)amino]methyl}-8-methylquinolin-7-yl)benzamide], the IC50 was determined as 2.2 nM.

Take `Cc1c(NC(=O)c2ccc(C#CC3CC3)cc2)ccc2cc(CNC3CCN(S(C)(=O)=O)CC3)cnc12` [Ex. 42, 4-(cyclopropylethynyl)-N-[8-methyl-3-({[1-(methylsulfonyl)piperidin-4-yl]amino}methyl)quinolin-7-yl]benzamide]: the IC50 turned out to be 2.3 nM.

With `Cc1c(NC(=O)c2ccc(C#CC3CC3)cc2)ccc2cc(CNCC3(O)CCS(=O)(=O)CC3)cnc12` [Ex. 43, 4-(cyclopropylethynyl)-N-[3-({[(4-hydroxy-1,1-dioxidotetrahydro-2H-thiopyran-4-yl)methyl]amino}methyl)-8-methylquinolin-7-yl]benzamide], the 50% inhibitory concentration (IC50) stood at 4.7 nM.

For the compound `Cc1c(NC(=O)c2ccc(C#CC3CC3)cc2)ccc2cc(CNCCCS(C)(=O)=O)cnc12` [Ex. 44, 4-(cyclopropylethynyl)-N-[8-methyl-3-({[3-(methylsulfonyl)propyl]amino}methyl)quinolin-7-yl]benzamide], the IC50 came out at 2.2 nM.

With `Cc1c(NC(=O)c2ccc(/C=C/C3CC3)cc2)ccc2cc(CNC3CCS(=O)(=O)CC3)cnc12` [Ex. 45, 4-[(E)-2-cyclopropylvinyl]-N-(3-{[(1,1-dioxidotetrahydro-2H-thiopyran-4-yl)amino]methyl}-8-methylquinolin-7-yl)benzamide], the 50% inhibitory concentration (IC50) amounted to 4.9 nM.

For `O=C(Nc1ccc2cc(CNC3CCS(=O)(=O)CC3)ccc2c1)c1ccc(OCC2CC2)cc1` [Ex. 46, 4-(cyclopropylmethoxy)-N-(6-{[(1,1-dioxidotetrahydro-2H-thiopyran-4-yl)amino]methyl}naphthalen-2-yl)benzamide], the IC50 worked out at 4.4 nM.

For `CC1=C(CNC2CCS(=O)(=O)CC2)CCc2cc(NC(=O)c3ccc(OCC4CC4)cc3)ccc21` [Ex. 47, 4-(cyclopropylmethoxy)-N-(6-{[(1,1-dioxidotetrahydro-2H-thiopyran-4-yl)amino]methyl}-5-methyl-7,8-dihydronaphthalen-2-yl)benzamide], the IC50 was 6.7 nM.

The values are drawn from patent US20110015225A1, “Heterocyclic compound” (Takeda Pharmaceutical Company Limited, priority 2008, published 2011).
